Test results: US9326993B2, “Treatment of pulmonary and pleural fibrosis using HSP27 inhibitors” (ONCOGENEX TECHNOLOGIES INC., priority 2011, dated 2016)
Residues, ends and D or L forms follow the SMILES beside them. *: point of attachment. e = 2'-O-(2-methoxyethyl) (MOE); Cbz = O=C(OCc1ccccc1)*; d = 2'-deoxy (DNA)

Assays:
[1] = test system: Mesothelial rat primary cells; experiment: Spontaneous EMT of primary mesothelial cells over culture passages; format: cell-based
Procedure: For primary cell harvesting, 8 ml of HBSS (Lonza, Paris, France) were injected in the pleural cavity through the diaphragm then removed and followed by a 10 ml trypsin 5%, EDTA 0.4% administration for 30 min. This lavage was removed and placed in 30 ml of DMEM (Dulbecco's Modified Eagle Medium, Lonza) with 15% FBS (Fetal Bovine Serum, Lonza). After centrifugation (1300 rpm, 5 minutes), the cell pellet was re-suspended into 5 ml DMEM, FBS 15% and placed at 37° C., 5% CO2.
Mesothelial rat primary cells were grown in Dulbecco's Modified Eagle's Medium (DMEM) 1% L-glutamine, 1% penicillin-streptomycin with 15% Fetal Bovine Serum (FBS. Lonza, Paris, France). Cells were assessed before culture and from passage 1 to 4.
(§1) Protein extraction was made using triton X 100 during 30 min at 4° C., vortexing every 10 min. Protein dosage is made with the modified lowry kit (Biorad, Marne-la-Coquette, France). Equal amounts of protein (30-50 μg) were electrophoresed through 8 to 12% SDS polyacrylamide gels. The separate protein bands were transferred onto a PVDF membrane. The non-specific sites were saturated with a solution of PBS-tween 0.1%, nonfat milk 8%. Membranes were incubated with primary Abs over night at 4° C. Secondary Abs IgG linked to HRP (HorseRadish Peroxidase, Jackson ImmunoResearch Laboratories, PA, USA) were used at a concentration of 1/5000. Enhanced ChemiLuminescent substrat (ECL, santa cruz biotechnology, CA, USA) was used to detect the protein of interest. […]

[2] = test system: AdTGF-β1 induced pleural and subpleural fibrosis model in rats; experiment: AdTGF-β1 induced pleural and subpleural fibrosis model; format: in vivo, rat; settings: for reduction in the lungs volume compared to AdDL administered animals: RCL2 volume, 10 min at 20 cm H20
Excerpt: For experiments on pleural fibrosis we used AdTGF-β1223/225, an adenovirus construct with a mutant TGF-β1 translated into spontaneously bioactive TGF-β1 (AdTGFβ1) and control vectors (AdDL) with no insert in the deleted E1 region. The construction of adenoviral vectors is described in detail elsewhere (DeCologne, 2007, supra; Bett et al. Proc Natl Acad Sci USA 1994; 91:8802-6; Sime et al., J Clin Invest 1997; 100:768-76)
Female Sprague-Dawley rats (Charles River Laboratories) weighing 200-225 g were housed in special pathogen-free conditions. Rodent laboratory food and water were provided ad libitum. The animals were treated in accordance to the guidelines of the Ministère de la Recherche et de laTechnologie (Paris, France). All experiments were approved by the Comitéd'Ethique de l'Universite´ de Bourgogne (Bourgogne, France). All animal procedures were performed with inhalation anesthesia with isoflurane (TEM, Lormont, France). Adenovector administrations were performed by intrapleural injection in 800 μl of NaCl0.9% containing a total of 1.3×10^9 PFU AdTGF-β1, AdDL or AdLacZ. The intrapleural injection protocol was described in details elsewhere (DeCologne, 2007, supra)).
12 mg/kg of control ASO and OGX-427 were daily administrated by intrapleural injection during 5 days after adenoviral administration. Rats were euthanized by abdominal aortic bleeding and lungs were harvested and processed following what was previously described in Decologne et al (DeCologne, 2007, supra)).
Immunohistochemitry: Inflated lungs were transversally cut and paraffin embedded. 5 μm section were performed and stain with primary antibodies (Ab), Mouse monoclonal anti-α-SMA (Sigma, St Quentin Fallavier, France, 1/200), rabbit polyclonal anti-HSP27 (EnzoLife Science, Villeurbanne, France, 1/200) and rabbit polyclonal cleaved caspase 3 (cell signaling, Saint Quentin, France, 1/100). Secondary Abs used were respectively, a goat anti-mouse IgG biotin conjugated and a goat anti-rabbit IgG biotin conjugated. After peroxidase inhibition (PBS plus H2O2, 20 min), lung section were incubated over night at 4° C. with primary ab. Tissue section were after PBS 1× (Phosphate Buffer Saline) wash incubated with the secondary ab (1/500) 45 min. The streptavidin-HRP complex (Jackson ImmunoResearch Laboratories, PA, USA, 1/500) was used 45 min at room temperature. 3-Amino-9-ethylcarbazole/hydrogen peroxide was used as chromagen substrate. Slides were counterstained with hematoxylin.
Total human TGF-β1 was determined from pleural lavage fluid (PLF) using ELISA (R&D Systems, Lille, France), performed according to the recommendations of the manufacturer. The sensitivity of this assay was 7 pg·mL-1.
To assess the role of HSP27 inhibition in the process of fibrogenesis in vivo, we administered OGX427 or its control ASO in the pleural cavity in our AdTGF-β1 induced pleural and subpleural fibrosis model in rats. The concentrations of ASO control and OGX-427 used were those previously described in studies of bladder cancer where the oligonucleotides were administered intra-vesically. (Matsui et al. Mol Cancer Ther 2009; 8:2402-11)
After AdTGF-β1 or AdDL intrapleural administration, rats were daily treated with the ASO control or OGX427 during […] by intra pleural injection. We first confirmed by an ELISA technique that the content on TGF-β1 after AdTGF-β1 intrapleural administration was similar in the pleural lavage fluid (PLF) from all rats, those treated with OGX427 and those treated with a control ASO (FIG. 4A). […] (FIG. 4B)
To determine lung activity, lung volumes were assessed by measuring the volume of RCL2 (fixation solution) that drained into the lungs after 10 min at a constant pressure of 20 cm H20. Compared to AdDL administered animals, AdTGF-β1 administration in ASO control rats induced a reduction in the lungs volume of 55%. […] This effect for the HSP27 inhibitor was only observed in the TGF-β1-exposed animals. […]

HSP27 = settings: cited from earlier work
[3] = test system: human mesothelial Met-5A cells; experiment: Induction of HSP27 overexpression in Met-5A cells; format: cell-based
Excerpt: To study the involvement of HSP27 in the EMT process, we induced the overexpression of HSP27 in the human mesothelial Met-5A cells by three different methods: heat shock, staurosporine treatment, and transfection with a plasmid encoding HSP27. […] (Brunet Simioni et al., Oncogene 2009; 28:3332-44) A more specific overexpression was obtained by HSP27 cDNA transfection. […] Conversely, siRNA-meditated depletion of HSP27 inhibits rTGF-β1 induced α-SMA in human […] Met-5A cells and epithelial A549 cells. This decrease in α-SMA content induced by HSP27 depletion seems to be, at least in part, the result of its proteasomal degradation because in the presence of an inhibitor of the proteasome, such as MG132, α-SMA levels were restored

[4] = test system: human mesothelial Met-5A cells; experiment: rTGF-β1-induced EMT in Met-5A cells (western blot, RT-PCR); format: cell-based; settings: HSP27 siRNA-depleted cells plus proteasome inhibitor
Procedure: Mesothelial rat established cell line 4/4 RM4 cells (American Type Culture Collection—ATCC—Rockville, Md.) were seeded in Ham's F10 (Lonza), with FBS 15%. Mesothelial human established cell line MET-5A (ATCC) were seeded in Medium 199 (lonza), 1% L-glutamine, 1% penicillin-streptomycin with 10% FBS. Epithelial human cell line A549 cells (ATCC) and were seeded in Ham's F10 (lonza) with 10% FBS.
For EMT induction and analysis, all the different cells were exposed to their respective medium containing 10 ng/ml recombinant (r)TGF-β1 (R&D system, Lille, France) for 6, 12, 24, or 48 hours.
HSP27 siRNA were purchased from applied bios system (Courtaboeuf, France). The sense and antisense sequence were respectively: 5′-GUUCAAAGCAACCACCUGUtt-3 (SEQ ID No: 4)′ and 5′-ACAGGUGGUUGCUUUGAACtt-3′. (SEQ ID No: 5). They were used at a concentration of 50 nM. SiRNA were transfected using INTERFERin (polyplus, Illkirch, France) following the manufacturer recommendations. 5-6 hours after transfection medium were changed and cells were treated or not with 10 ng/ml TGF-β1 for 12, 24 or 48 hours. Seq ID No. 3 was used as a random control oligonucleotide.
as §1
Total RNA was extracted using TRIzol (Invitrogen, Cergy Pontoise, France) from MET-5A and A549 cells treated or not with rTGF-β1 12 or 24 hours and transfected or not by HSP27 siRNA or plasmid encoding HSP27. […] Quantitative RT-PCR was performed on the cDNA using the SYBR green master mix (promega, Charbonnieres, France). […]

OGX-427: 4-12-4 2′-MOE gapmer antisense oligonucleotide with phosphorothiolated linkages targeting HSP27, made by OncoGenex (Seq. ID No. 2) (antisense GGGACGCGGCGCTCGGTCAT; sugars from the 5' end e4 d12 e4, all C 5-methyl, all phosphorothioate, T or U not given here; listed as Homo sapiens)
increased expression of HSP27 with cell passages ([1]; vs ASO control): blocked | increased expression of α-SMA with cell passages ([1]; vs ASO control): blocked | cell shape (mesothelial phenotype) ([1]; vs control ASO): kept their mesothelial phenotypic shape | lung volumes in AdDL-administered animals, ASO control vs OGX 427 ([2]; AdDL rats (no TGF-β1)): no difference | mesothelial cell migration within the subpleural parenchyma ([2]; AdTGF-β1 + AdLacZ rats): no mesothelial cell migration | morphology of the mesothelial cells ([2]; AdTGF-β1 + AdLacZ rats): did not change | pleural fibrosis (histological evaluation) ([2]; AdTGF-β1 rats): minor pleural fibrosis | HSP27 expression in lungs ([2]; AdTGF-β1 rats, histology): very significant decrease | α-SMA expression in lungs ([2]; AdTGF-β1 rats, histology): very significant decrease | pleural collagen quantified from microscopic images ([2]; AdTGF-β1 rats, vs control antisense): substantial reduction | reduction in the lungs volume compared to AdDL administered animals ([2]; AdTGF-β1 rats): 35% | HSP27 expression in PLF (western blot) ([2]; AdTGF-β1 rats, intra-pleural administration): strongly blocked | TGF-β1 content in pleural lavage fluid (ELISA) ([2]; after AdTGF-β1 intrapleural, 12 mg/kg daily intrapleural, vs control ASO): similar | amount of fibrosis in the pulmonary parenchyma ([2]; collagen in parenchymal subpleural areas): reduces the amount of fibrosis

CC(=O)O[C@H]1C(=O)[C@@]2(C)[C@H]([C@H](OC(=O)c3ccccc3)[C@]3(O)C[C@H](OC(=O)[C@H](O)[C@@H](NC(=O)c4ccccc4)c4ccccc4)C(C)=C1C3(C)C)[C@]1(OC(C)=O)CO[C@@H]1C[C@@H]2O [Paclitaxel]
HSP27 expression/levels (HSP27): inhibitor of hsp27 expression

interferon-γ: cytokine shown to downregulate expression of HSP27
HSP27 expression/levels (HSP27): downregulate expression of HSP27

CN[C@@H]1C[C@H]2O[C@@](C)([C@@H]1OC)n1c3ccccc3c3c4c(c5c6ccccc6n2c5c31)C(=O)NC4 [staurosporine]
HSP27 induction [3]: efficient inducers of HSP27 | α-SMA expression/content ([3]; after HSP27 overexpression): increase

ASO control: control oligonucleotide having the sequence CCTTCCCTGAAGGTTCCTCC, also known as ISIS 141923 (listed as DNA, chemistry not given here)
reduction in the lungs volume compared to AdDL administered animals ([2]; AdTGF-β1 rats): 55%

CC(C)C[C@@H](C=O)NC(=O)[C@H](CC(C)C)NC(=O)[C@H](CC(C)C)NC(=O)OCc1ccccc1 [MG132] (Cbz-Leu-Leu-Leu-aldehyde)
α-SMA levels after HSP27 depletion [4]: restored
